Like-named read-outs stand apart in the source and are kept apart here.
Legend:
Type in all cases: cell-based
leukemia cells = experiment: alamarBlue viability, leukemia cells overall
Method: (§1) Compound 1 and a comparative compound deferasirox (DFX) were tested in their efficacy to kill/suppress proliferation of several leukemia cells. Briefly, 10.000 cells per well were seeded in a 96-well plate on one day and the next day the tested compounds were added and incubated with the cells for 48 hrs. Cellular viability was determined as the ability to reduce the probe alamarBlue™ Cell Viability Reagent.

[1] = system: non-malignant fibroblasts (HFP1); experiment: crystal violet assay, cellular viability, 48 hrs; details: Fibroblast
Method: [The source words this procedure for another cell line and reports this cell line under the same test.] (§2) Compound 1 and a comparative compound deferasirox (DFX) were tested in their efficacy to kill/suppress proliferation of malignant breast cancer MCF7 cells representing estrogen-dependent type of breast cancer. Briefly, 10.000 cells per well were seeded in a 96-well plate on one day and the next day the tested compounds were added and incubated with the cells for 48 hrs. The cells were then fixed with 4% paraformaldehyde, stained with 0.05% crystal violet, washed with PBS, and solubilized in 1% SDS. The absorbance of the plate at 595 nm was then measured, quantifying the number of viable cells.
(§3) Compounds 1, 2 and the comparative compound deferasirox were tested in their efficacy to suppress proliferation/kill several malignant cell lines of breast, pancreatic and ovarian origin (MCF7, MDA-MB-231, BxPC3 and OVCAR3). The procedure is identical to that in example 12.

OVCAR3 = experiment: crystal violet assay, cellular viability, 48 hrs; details: Homo sapiens, OVCAR-3
Method: as §2, §3

T47D = experiment: crystal violet assay, cellular viability, 48 hrs; details: Homo sapiens, T47D (parental/control)
Method: [The source words this procedure for another cell line and reports this cell line under the same test.] as §2, §3

BxPC3 = experiment: crystal violet assay, cellular viability, 48 hrs; details: Homo sapiens, BXPC-3
Method: as §2, §3

[2] = system: tamoxifen resistant T47D (Tam5R); experiment: crystal violet assay, tamoxifen resistant cells; details: Homo sapiens, T47D Tam5R grown in the presence of 5 μM tamoxifen
Method: as §2
(§4) To test whether compound 1 is active against resistant cancer cells, we used tamoxifen-resistant MCF7, T47D. The IC50 values were again measured with the crystal violet assay performed as in example 12. We have documented that there is a significant difference in the ability of compound 1 to induce cytostatic and cytotoxic effects between the parental cells sensitive to tamoxifen and the resistant ones that grow even in the presence of tamoxifen (Table 11), yet the IC50 values are still in the nM range, making this compound very efficient.

[3] = system: tamoxifen resistant MCF7 (Tam5R); experiment: crystal violet assay, tamoxifen resistant cells; details: MCF7 Tam5R grown in the presence of 5 μM tamoxifen
Method: as §2, §4

MCF7 cells = experiment: crystal violet assay, cellular viability (cytostatic and cytotoxic effect), 48 hrs; details: Homo sapiens
Method: as §2

UPF4D leukemia cell line [4] = experiment: alamarBlue Cell Viability Reagent, 48 hrs
Method: as §1

UPF1H leukemia cell line [5] = experiment: alamarBlue Cell Viability Reagent, 48 hrs
Method: as §1

UPF9T leukemia cell line [6] = experiment: alamarBlue Cell Viability Reagent, 48 hrs
Method: as §1

[7] = system: UPF16A leukemia cell line; experiment: alamarBlue Cell Viability Reagent, 48 hrs
Method: as §1

MDA-MB-231 cells = experiment: crystal violet assay, cellular viability, 48 hrs; details: for IC50: MDA-MB-231, crystal violet
Method: as §2
Compound 1 and the comparative compound deferasirox were tested in their efficacy to kill/suppress proliferation of malignant MDA-MB-231 cancer cells representing hard to treat triple negative breast cancer. The procedure is identical to that in example 12.

UPF4D leukemia cell line [8] = experiment: AnnexinV/PI assay, cell death induction, 48 hrs
Method: (§5) This effect seems to be based mainly on the cytostatic effect of compound 1. To define the ability to kill cells, cell death-inducing potency (cytotoxic efficacy) of DFX and compound 1 have been tested via annexin V/PI staining commonly used as a measure of apoptotic/necrotic cell death. Briefly, cells were seeded in 12-well plate at 100,000 per well, incubated with the selected compounds for 48 hours, then floating cells were spun, adherent cells trypsinized and spun as well followed by the staining with AnnexinV-FITC and PI probes. Cells were then washed with PBS and measured via Fluorescence Activated Sorter.
(§6) This effect seems to be based mainly on the cytostatic effect of compound 1. To define the ability to kill cells, cell death-inducing potency (cytotoxic efficacy) of DFX and compound 1 have been tested via annexin V/PI staining commonly used as a measure of apoptotic/necrotic cell death (see example 15). […] Compound 1 killed cancer cells with effects higher by almost 3 orders of magnitude than those of deferasirox. Such results are unprecedented and very unexpected.

UPF1H leukemia cell line [9] = experiment: AnnexinV/PI assay, cell death induction, 48 hrs
Method: as §5, §6

UPF9T leukemia cell line [10] = experiment: AnnexinV/PI assay, cell death induction, 48 hrs
Method: as §5, §6

[11] = system: UPF16A leukemia cell line; experiment: AnnexinV/PI assay, cell death induction, 48 hrs
Method: as §5, §6

For O=C(NCCCCCCCCCC[P+](c1ccccc1)(c1ccccc1)c1ccccc1)c1ccc(-n2nc(-c3ccccc3O)nc2-c2ccccc2O)cc1 [Compound 1, (10-(4-(3,5-bis(2-hydroxyphenyl)-1H-1,2,4-triazol-1-yl)benzamido)decyl) triphenylphosphonium Chloride], the IC50 (leukemia cells; 48 h, read-out: IC50 (suppression of proliferation to 50%)) was 20 to 200 nM, the “same effect at a concentration lower than deferasirox” value (leukemia cells; IC50 versus deferasirox, leukemia cells) was 40-4000 fold and the “efficacy against leukemia cell lines” value (leukemia cells; as seen in previous tables) was 20 to 200 nM. The IC50 [1] was 532 nM, the IC50 (OVCAR3) was 154 nM and the IC50 (T47D) was 31 nM. The IC50 (BxPC3) was 150 nM, the IC50 [2] was 112 nM and the IC50 [3] was 38 nM. For the same compound, the viability at 0.03 µM (MCF7 cells; 0.030 μM, MCF7, read-out: viable cells compared to non-treated controls) was 33.7%, the viability at 0.1 µM (MCF7 cells; 0.100 μM, MCF7, read-out: viable cells compared to non-treated controls) was 23.6% and the viability at 0.3 µM (MCF7 cells; 0.300 μM, MCF7, read-out: viable cells compared to non-treated controls) was 14.8%. It also gave a viability at 1 µM (MCF7 cells; 1 μM, MCF7, read-out: viable cells compared to non-treated controls) of 7.28%, a viability at 3 µM (MCF7 cells; 3 μM, MCF7, read-out: viable cells compared to non-treated controls) of 5.2% and a viability at 10 µM (MCF7 cells; 10 μM, MCF7, read-out: viable cells compared to non-treated controls) of 2.31%. It also gave a viability at 30 µM (MCF7 cells; 30 μM, MCF7, read-out: viable cells compared to non-treated controls) of 0.69%, an IC50 (MCF7 cells; MCF7 (parental/control), crystal violet, read-out: IC50) of 8 nM and an IC50 (MCF7 cells; MCF7, crystal violet, read-out: IC50 (suppression of proliferation to 50%)) of 8 nM. For the same compound, the viability at 0.03 µM (UPF4D leukemia cell line [4]; 0.030 μM, 48 hrs, UPF4D, read-out: viable cells compared to non-treated controls) was 90.1%, the viability at 0.1 µM (UPF4D leukemia cell line [4]; 0.100 μM, 48 hrs, UPF4D, read-out: viable cells compared to non-treated controls) was 49.8% and the viability at 0.3 µM (UPF4D leukemia cell line [4]; 0.300 μM, 48 hrs, UPF4D, read-out: viable cells compared to non-treated controls) was 0.56%. The viability at 3 µM (UPF4D leukemia cell line [4]; 3 μM, 48 hrs, UPF4D, read-out: viable cells compared to non-treated controls) was 0.74%, the viability at 10 µM (UPF4D leukemia cell line [4]; 10 μM, 48 hrs, UPF4D, read-out: viable cells compared to non-treated controls) was 0.1% and the IC50 (UPF4D leukemia cell line [4]; 48 h) was 90 nM. For the same compound, the viability at 0.03 µM (UPF1H leukemia cell line [5]; 0.030 μM, 48 hrs, read-out: viable cells compared to non-treated controls) was 94.1%, the viability at 0.1 µM (UPF1H leukemia cell line [5]; 0.100 μM, 48 hrs, read-out: viable cells compared to non-treated controls) was 81.9% and the viability at 0.3 µM (UPF1H leukemia cell line [5]; 0.300 μM, 48 hrs, read-out: viable cells compared to non-treated controls) was 31.1%. It also gave a viability at 3 µM (UPF1H leukemia cell line [5]; 3 μM, 48 hrs, read-out: viable cells compared to non-treated controls) of 5.8%, a viability at 10 µM (UPF1H leukemia cell line [5]; 10 μM, 48 hrs, read-out: viable cells compared to non-treated controls) of 0.04% and an IC50 (UPF1H leukemia cell line [5]; 48 h) of 230 nM. For the same compound, the viability at 0.03 µM (UPF9T leukemia cell line [6]; 0.030 μM, 48 hrs, UPF9T, read-out: viable cells compared to non-treated controls) was 44.8%, the viability at 0.1 µM (UPF9T leukemia cell line [6]; 0.100 μM, 48 hrs, UPF9T, read-out: viable cells compared to non-treated controls) was 10.5% and the viability at 0.3 µM (UPF9T leukemia cell line [6]; 0.300 μM, 48 hrs, UPF9T, read-out: viable cells compared to non-treated controls) was 2%. It also gave a viability at 3 µM (UPF9T leukemia cell line [6]; 3 μM, 48 hrs, UPF9T, read-out: viable cells compared to non-treated controls) of 6.7%, a viability at 10 µM (UPF9T leukemia cell line [6]; 10 μM, 48 hrs, UPF9T, read-out: viable cells compared to non-treated controls) of 6.9% and an IC50 (UPF9T leukemia cell line [6]; 48 h) of 20 nM. For the same compound, the viability at 0.03 µM ([7]; 0.030 μM, 48 hrs, UPF16A, read-out: viable cells compared to non-treated controls) was 75.7%, the viability at 0.1 µM ([7]; 0.100 μM, 48 hrs, UPF16A, read-out: viable cells compared to non-treated controls) was 50.2% and the viability at 0.3 µM ([7]; 0.300 μM, 48 hrs, UPF16A, read-out: viable cells compared to non-treated controls) was 30.8%. For the same compound, the viability at 3 µM ([7]; 3 μM, 48 hrs, UPF16A, read-out: viable cells compared to non-treated controls) was 4%, the viability at 10 µM ([7]; 10 μM, 48 hrs, UPF16A, read-out: viable cells compared to non-treated controls) was 0.31% and the IC50 ([7]; 48 h) was 110 nM. It also gave a viability at 0.03 µM (MDA-MB-231 cells; Homo sapiens, 0.030 μM, MDA-MB-231, read-out: viable cells compared to non-treated controls) of 71.1%, a viability at 0.1 µM (MDA-MB-231 cells; Homo sapiens, 0.100 μM, MDA-MB-231, read-out: viable cells compared to non-treated controls) of 52.5% and a viability at 0.3 µM (MDA-MB-231 cells; Homo sapiens, 0.300 μM, MDA-MB-231, read-out: viable cells compared to non-treated controls) of 37.4%. It also gave a viability at 1 µM (MDA-MB-231 cells; Homo sapiens, 1 μM, MDA-MB-231, read-out: viable cells compared to non-treated controls) of 27.8%, a viability at 3 µM (MDA-MB-231 cells; Homo sapiens, 3 μM, MDA-MB-231, read-out: viable cells compared to non-treated controls) of 18.2% and a viability at 10 µM (MDA-MB-231 cells; Homo sapiens, 10 μM, MDA-MB-231, read-out: viable cells compared to non-treated controls) of 0.29%. For the same compound, the viability at 30 µM (MDA-MB-231 cells; Homo sapiens, 30 μM, MDA-MB-231, read-out: viable cells compared to non-treated controls) was 0.51%, the IC50 (MDA-MB-231 cells; Homo sapiens, MDA-MB-231, 48 h) was 131 nM and the IC50 (MDA-MB-231 cells; Homo sapiens, MDA-MB-231, 48 h, text) was 131 nM. For the same compound, the IC50 (MDA-MB-231 cells) was 130 nM, the “dead cells (AnnexinV/PI)” value (UPF4D leukemia cell line [8]; 0.1 μM) was 87.3 (13.4) % and the “dead cells (AnnexinV/PI)” value (UPF4D leukemia cell line [8]; 1 μM) was 96.7 (3.9) %. For the same compound, the “dead cells (AnnexinV/PI)” value (UPF1H leukemia cell line [9]; 0.1 μM) was 85.3 (10.9) %, the “dead cells (AnnexinV/PI)” value (UPF1H leukemia cell line [9]; 1 μM) was 98.3 (0.6) % and the “dead cells (AnnexinV/PI)” value (UPF9T leukemia cell line [10]; 0.1 μM) was 88.2 (4.8) %. The “dead cells (AnnexinV/PI)” value (UPF9T leukemia cell line [10]; 1 μM) was 99.0 (0.6) %, the “dead cells (AnnexinV/PI)” value ([11]; 0.1 μM) was 45.4 (16.2) % and the “dead cells (AnnexinV/PI)” value ([11]; 1 μM) was 71.8 (20.2) %.
